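Grown in 96-well plates, cells were treated for 48 hours with each compound at five concentrations. Insufficient inhibition: endpoint recorded as highest concentration tested. At the GI50, growth is halved.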 Activity calls are given as the source filed them. Rule as the data show it: active = GI50 up to about 1.1 µM and inactive = higher.
Key:
Assay in all cases: inhibition of tumour cell growth, NCI panel, 48 h
[1] = test system: 786-0
[2] = test system: UO-31
[3] = test system: KM12
[4] = test system: SK-MEL-2
[5] = test system: HOP-92
[6] = test system: TK-10
[7] = test system: SR
[8] = test system: K562
[9] = test system: DU-145
[10] = test system: U-251
[11] = test system: OVCAR-5
[12] = test system: PC-3
[13] = test system: HOP-62
[14] = test system: LOX IMVI
[15] = test system: Malme-3M
[16] = test system: SF-268
[17] = test system: COLO 205
[18] = test system: MDA-MB-435
[19] = test system: SNB-75
[20] = test system: CCRF-CEM

Measured: GI50

Cc1nn(CN2CCN(C)CC2)c(=S)n1/N=C/c1ccc(-c2ccc(Cl)cc2Cl)o1
inactive: [1] 50.1 µM | [2] 92.9 µM | [3] > 100 µM | [4] > 100 µM | [5] > 100 µM | [6] 43.9 µM | [7] 37 µM | [8] 50.8 µM | [9] > 100 µM | [10] 32.8 µM | [11] > 100 µM | [12] 68.7 µM | [13] > 100 µM | [14] 60.7 µM | [15] > 100 µM | [16] 92.5 µM | [17] > 100 µM | [18] 36.1 µM

Cn1c2ccccc2c(=O)c2c(O)cc3c(c21)C1OCC(C)(O)C1O3 (centres undefined)
inactive: [1] 39.2 µM | [2] 5.4 µM | [4] 28.3 µM | [19] 22.9 µM | [6] 82 µM | [7] 46.7 µM | [8] 53.3 µM | [9] 29.2 µM | [10] 21.4 µM | [20] 23.8 µM | [11] 19.5 µM | [12] 44.7 µM | [13] 23.6 µM | [16] 26.6 µM | [17] 51.1 µM | [18] > 100 µM

S=C(Nc1ccc2c(c1)oc1ccccc12)c1cccs1
inactive: [1] 11.3 µM | [2] > 100 µM | [4] > 100 µM | [5] 53.5 µM | [6] > 100 µM | [7] 4.25 µM | [9] 40.8 µM | [10] 30.5 µM | [20] > 100 µM | [11] > 100 µM | [12] > 100 µM | [13] 25.4 µM | [14] 7.73 µM | [16] 38.1 µM | [17] > 100 µM | [18] > 100 µM

N#CCCN(CCC#N)CCN(CCN(CCC#N)CCC#N)CCN(CCC#N)CCC#N
inactive: [1] > 100 µM | [2] > 100 µM | [4] > 100 µM | [19] > 100 µM | [5] > 100 µM | [6] > 100 µM | [7] > 100 µM | [8] > 100 µM | [9] > 100 µM | [10] > 100 µM | [11] > 100 µM | [12] > 100 µM | [13] > 100 µM | [14] > 100 µM | [15] > 100 µM | [16] > 100 µM | [17] > 100 µM | [18] > 100 µM

CCN(CC)C(=S)N/N=C/c1cc([N+](=O)[O-])ccc1O
inactive: [1] 2.99 µM | [2] 3.12 µM | [3] 4.07 µM | [4] 16.4 µM | [19] 9.27 µM | [6] 8.87 µM | [7] 1.74 µM | [8] 3.18 µM | [9] 4.56 µM | [10] 4.24 µM | [20] 1.26 µM | [11] 24.3 µM | [12] 4.92 µM | [13] 7.4 µM | [14] 3.01 µM | [15] 6.68 µM | [16] 3.66 µM | [17] 3.4 µM | [18] 5.48 µM

COc1ccc(C#CC(=O)O)c(OC)c1
inactive: [1] > 100 µM | [2] > 100 µM | [3] > 100 µM | [4] > 100 µM | [5] > 100 µM | [6] > 100 µM | [7] > 100 µM | [8] > 100 µM | [9] > 100 µM | [10] > 100 µM | [20] > 100 µM | [11] > 100 µM | [12] > 100 µM | [13] > 100 µM | [14] > 100 µM | [15] > 100 µM | [17] > 100 µM | [18] > 100 µM

COCCCNc1c2ccccc2nc2ccccc12
inactive: [1] 3.57 µM | [2] 2.05 µM | [3] 4.39 µM | [4] 2.17 µM | [5] 3.58 µM | [6] 5.62 µM | [7] 2.86 µM | [8] 3.23 µM | [9] 2.52 µM | [20] 5.26 µM | [11] 2.17 µM | [12] 2.01 µM | [13] 3.29 µM | [14] 2.22 µM | [15] 1.87 µM | [16] 3.75 µM | [17] 2.11 µM | [18] 3.85 µM

O=C(Nc1ccc(Cl)c(Cl)c1)OCCN1c2ccccc2Sc2ccccc21
inactive: [1] > 10 µM | [3] > 10 µM | [19] > 10 µM | [5] > 10 µM | [6] > 10 µM | [7] > 10 µM | [8] > 10 µM | [9] > 10 µM | [10] > 10 µM | [20] > 10 µM | [11] > 10 µM | [12] > 10 µM | [13] > 10 µM | [14] > 10 µM | [15] > 10 µM | [16] > 10 µM | [17] > 10 µM | [18] > 10 µM

O=C1C/C(=C\c2ccccc2)C(=O)c2ccccc2N1
inactive: [1] 19.5 µM | [3] 22.6 µM | [4] 28.5 µM | [5] 29.9 µM | [6] 32.9 µM | [7] 42.8 µM | [9] 32.5 µM | [20] 16.7 µM | [11] 20 µM | [12] 23.9 µM | [13] 27.5 µM | [14] 20.6 µM | [15] 17.5 µM | [16] 38.2 µM | [17] 20 µM | [18] 23.3 µM

CC(Br)CN1CCOCC1 (centres undefined)
inactive: [1] > 100 µM | [2] > 100 µM | [3] > 100 µM | [4] > 100 µM | [5] > 100 µM | [6] > 100 µM | [7] 13.9 µM | [8] 50 µM | [9] > 100 µM | [10] > 100 µM | [11] > 100 µM | [12] > 100 µM | [13] > 100 µM | [14] > 100 µM | [15] > 100 µM | [16] > 100 µM | [17] > 100 µM | [18] > 100 µM

CCC(C)C1=C(O)[N+]2([O-])Oc3ccc(-c4c(O)c(O)c(-c5ccc(O)cc5)c(OC(C)=O)c4OC(C)=O)cc3OC2(C(C)CC)C(=O)N1O (centres undefined)
inactive: [1] 13.7 µM | [2] > 50 µM | [3] > 50 µM | [4] > 50 µM | [19] > 50 µM | [6] > 50 µM | [7] > 50 µM | [8] 35.4 µM | [9] > 50 µM | [10] > 50 µM | [20] 1.88 µM | [11] > 50 µM | [12] > 50 µM | [14] 17.6 µM | [15] > 50 µM | [16] > 50 µM | [17] > 50 µM | [18] 16.8 µM

Cc1cc2nc(N3C(=O)/C(=C/Cc4ccco4)N=C3c3ccccc3)sc2cc1C
inactive: [1] 27.2 µM | [2] 26.6 µM | [3] 25.9 µM | [4] 26.8 µM | [19] 17.7 µM | [5] 10.2 µM | [6] 84.1 µM | [7] 38.4 µM | [8] 22.8 µM | [9] 61.9 µM | [10] 29 µM | [20] 9.18 µM | [11] 24.9 µM | [12] 12.1 µM | [13] 54.7 µM | [14] 25.9 µM | [16] 40.4 µM | [17] 28 µM | [18] 7.53 µM

Cn1c(=O)c2c(nc3sc4nc5ccccc5nc4n32)n(C)c1=O
inactive: [1] > 100 µM | [2] > 100 µM | [3] > 100 µM | [19] 34.8 µM | [5] > 100 µM | [6] > 100 µM | [7] > 100 µM | [8] > 100 µM | [9] > 100 µM | [10] > 100 µM | [20] > 100 µM | [11] > 100 µM | [12] > 100 µM | [14] 92.3 µM | [15] > 100 µM | [16] > 100 µM | [17] > 100 µM | [18] > 100 µM

N#Cc1nc(Cc2cccs2)oc1N
inactive: [1] > 100 µM | [2] 27.5 µM | [3] > 100 µM | [4] > 100 µM | [19] > 100 µM | [5] > 100 µM | [6] > 100 µM | [7] > 100 µM | [8] > 100 µM | [9] > 100 µM | [10] > 100 µM | [20] 47.5 µM | [11] > 100 µM | [12] > 100 µM | [13] > 100 µM | [14] > 100 µM | [16] > 100 µM | [18] > 100 µM

COC(=O)C1[C@H](C(=O)OC)C1(Br)CBr (some centres undefined)
inactive: [1] > 100 µM | [2] > 100 µM | [3] > 100 µM | [4] > 100 µM | [19] > 100 µM | [5] > 100 µM | [6] > 100 µM | [7] > 100 µM | [8] > 100 µM | [9] > 100 µM | [10] > 100 µM | [11] > 100 µM | [12] > 100 µM | [13] > 100 µM | [14] > 100 µM | [16] > 100 µM | [17] > 100 µM | [18] > 100 µM

Nc1ncnc2c1nc(-c1ccccc1)n2C1OC(CO)C(O)C1O (centres undefined)
inactive: [1] > 100 µM | [2] > 100 µM | [3] 86.7 µM | [4] > 100 µM | [19] > 100 µM | [5] > 100 µM | [6] > 100 µM | [7] > 100 µM | [8] > 100 µM | [9] > 100 µM | [10] > 100 µM | [11] > 100 µM | [12] > 100 µM | [13] > 100 µM | [14] > 100 µM | [16] > 100 µM | [17] > 100 µM | [18] > 100 µM

From ChEMBL document CHEMBL1201862, “PubChem BioAssay data set” (2004)
